From ChEMBL document CHEMBL1201862, “PubChem BioAssay data set” (2004)
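Step 1: Grow cells in 96-well plates. Step 2: Expose to compound for 48 hours at 5 concentrations. Step 3: Interpolate endpoints linearly; if unreached, use highest concentration. The concentration for 50% growth inhibition is given as GI50.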 Calls of active or inactive are those of the source. Rule as the data show it: active = GI50 up to about 1.1 µM and inactive = higher.

Experiments:
Assay in all cases: NCI tumour cell line growth inhibition, 48 h
EKVX = system: EKVX
BT-549 = system: BT-549
NCI-H460 = system: NCI-H460
UACC-62 = system: UACC-62
SF-295 = system: SF-295
Hs-578T = system: Hs-578T
NCI/ADR-RES = system: NCI/ADR-RES
COLO 205 = system: COLO 205
K562 = system: K562
U-251 = system: U-251
OVCAR-5 = system: OVCAR-5
SN12C = system: SN12C
UO-31 = system: UO-31
ACHN = system: ACHN
HT-29 = system: HT-29
CAKI-1 = system: CAKI-1
DU-145 = system: DU-145
OVCAR-4 = system: OVCAR-4
KM12 = system: KM12
SF-268 = system: SF-268
MDA-MB-231 = system: MDA-MB-231
LOX IMVI = system: LOX IMVI
SW-620 = system: SW-620
HCC 2998 = system: HCC 2998
SK-MEL-5 = system: SK-MEL-5
HCT-15 = system: HCT-15
NCI-H522 = system: NCI-H522
HOP-92 = system: HOP-92
OVCAR-8 = system: OVCAR-8
M14 = system: M14
Malme-3M = system: Malme-3M
TK-10 = system: TK-10
A549 = system: A549
OVCAR-3 = system: OVCAR-3
MDA-N = system: MDA-N
NCI-H23 = system: NCI-H23
T47D = system: T47D
RPMI-8226 = system: RPMI-8226
MOLT-4 = system: MOLT-4
RXF 393 = system: RXF 393
CCRF-CEM = system: CCRF-CEM
SNB-19 = system: SNB-19
HL-60 = system: HL-60
SNB-75 = system: SNB-75
NCI-H226 = system: NCI-H226
SF-539 = system: SF-539
SK-OV-3 = system: SK-OV-3
UACC-257 = system: UACC-257
PC-3 = system: PC-3
HCT-116 = system: HCT-116
SR = system: SR
HOP-62 = system: HOP-62
SK-MEL-2 = system: SK-MEL-2
A498 = system: A498
MDA-MB-435 = system: MDA-MB-435
786-0 = system: 786-0
MCF7 = system: MCF7
IGROV-1 = system: IGROV-1
SK-MEL-28 = system: SK-MEL-28

CCCCc1ccc(Nc2nc(S)c3ncn(COCCO)c3n2)cc1
GI50 (EKVX): 60.5 µM (inactive) | GI50 (BT-549): 56.9 µM (inactive) | GI50 (NCI-H460): 41.5 µM (inactive) | GI50 (UACC-62): 41.4 µM (inactive) | GI50 (SF-295): 64.7 µM (inactive) | GI50 (Hs-578T): 36.3 µM (inactive) | GI50 (NCI/ADR-RES): > 100 µM (inactive) | GI50 (COLO 205): 20.6 µM (inactive) | GI50 (K562): 15.5 µM (inactive) | GI50 (U-251): 35 µM (inactive) | GI50 (OVCAR-5): 86.5 µM (inactive) | GI50 (SN12C): 39.7 µM (inactive) | GI50 (UO-31): > 100 µM (inactive) | GI50 (ACHN): 43.1 µM (inactive) | GI50 (HT-29): 50.5 µM (inactive) | GI50 (CAKI-1): > 100 µM (inactive) | GI50 (DU-145): 56.9 µM (inactive) | GI50 (OVCAR-4): 45.4 µM (inactive) | GI50 (KM12): 38 µM (inactive) | GI50 (SF-268): > 10 µM (inactive) | GI50 (MDA-MB-231): 15.4 µM (inactive) | GI50 (LOX IMVI): 27.4 µM (inactive) | GI50 (SW-620): 69 µM (inactive) | GI50 (HCC 2998): 36.8 µM (inactive) | GI50 (SK-MEL-5): 62.1 µM (inactive) | GI50 (HCT-15): > 100 µM | GI50 (NCI-H522): 20.9 µM (inactive) | GI50 (HOP-92): 27.4 µM (inactive) | GI50 (OVCAR-8): 45.4 µM (inactive) | GI50 (M14): 44.4 µM (inactive) | GI50 (Malme-3M): 23.3 µM (inactive) | GI50 (TK-10): 66.2 µM (inactive) | GI50 (A549): > 100 µM (inactive) | GI50 (OVCAR-3): 21 µM (inactive) | GI50 (MDA-N): 41.9 µM (inactive) | GI50 (NCI-H23): 34.4 µM (inactive) | GI50 (T47D): 11.6 µM (inactive) | GI50 (RPMI-8226): 21.3 µM (inactive) | GI50 (MOLT-4): 33.5 µM (inactive) | GI50 (RXF 393): 56 µM (inactive) | GI50 (CCRF-CEM): 25.7 µM (inactive) | GI50 (SNB-19): 31.2 µM (inactive) | GI50 (HL-60): 25.2 µM (inactive) | GI50 (SNB-75): 41 µM (inactive) | GI50 (NCI-H226): 88.7 µM (inactive) | GI50 (SF-539): > 100 µM (inactive) | GI50 (SK-OV-3): > 100 µM (inactive) | GI50 (UACC-257): 30.4 µM (inactive) | GI50 (PC-3): 32.9 µM (inactive) | GI50 (HCT-116): 65 µM (inactive) | GI50 (SR): 24 µM (inactive) | GI50 (HOP-62): 31 µM (inactive) | GI50 (SK-MEL-2): 23.4 µM (inactive) | GI50 (A498): > 100 µM (inactive) | GI50 (MDA-MB-435): 57.4 µM (inactive) | GI50 (786-0): > 100 µM (inactive) | GI50 (MCF7): 24.2 µM (inactive) | GI50 (IGROV-1): 36 µM (inactive)

O=C(N[C@@H](Cc1ccccc1)B(O)O)[C@H](Cc1cccc2ccccc12)NC(=O)N1CCOCC1
GI50 (EKVX): 0.0267 µM (active) | GI50 (BT-549): 0.000468 µM (active) | GI50 (NCI-H460): 0.0215 µM (active) | GI50 (UACC-62): 0.00248 µM (active) | GI50 (SF-295): 0.00478 µM (active) | GI50 (Hs-578T): 0.00175 µM (active) | GI50 (NCI/ADR-RES): 0.938 µM (active) | GI50 (COLO 205): 0.00552 µM (active) | GI50 (K562): 0.00371 µM (active) | GI50 (U-251): 0.00423 µM (active) | GI50 (OVCAR-5): 0.00281 µM (active) | GI50 (SN12C): 0.00371 µM (active) | GI50 (UO-31): 0.232 µM (active) | GI50 (ACHN): 0.0105 µM (active) | GI50 (HT-29): 0.00239 µM (active) | GI50 (CAKI-1): 0.00555 µM (active) | GI50 (DU-145): 0.00627 µM (active) | GI50 (OVCAR-4): 0.00454 µM (active) | GI50 (KM12): 0.00185 µM (active) | GI50 (SF-268): 0.00161 µM (active) | GI50 (MDA-MB-231): 0.00267 µM (active) | GI50 (LOX IMVI): 0.00124 µM (active) | GI50 (SW-620): 0.00258 µM (active) | GI50 (HCC 2998): 0.00182 µM (active) | GI50 (SK-MEL-5): 0.00154 µM (active) | GI50 (HCT-15): 0.155 µM | GI50 (NCI-H522): < 0.01 µM (active) | GI50 (HOP-92): 0.00233 µM (active) | GI50 (OVCAR-8): 0.0254 µM (active) | GI50 (M14): 0.00168 µM (active) | GI50 (Malme-3M): 0.00187 µM (active) | GI50 (TK-10): 0.00566 µM (active) | GI50 (A549): 0.0262 µM (active) | GI50 (OVCAR-3): 0.000891 µM (active) | GI50 (MDA-N): < 0.01 µM (active) | GI50 (NCI-H23): 0.00172 µM (active) | GI50 (SK-MEL-28): 0.00106 µM (active) | GI50 (T47D): 0.00104 µM (active) | GI50 (RPMI-8226): 0.000412 µM (active) | GI50 (MOLT-4): 0.000371 µM (active) | GI50 (RXF 393): 0.00167 µM (active) | GI50 (CCRF-CEM): 0.000186 µM (active) | GI50 (SNB-19): 0.00708 µM (active) | GI50 (HL-60): < 0.01 µM (active) | GI50 (SNB-75): < 0.01 µM (active) | GI50 (NCI-H226): 0.00029 µM (active) | GI50 (SF-539): 0.000265 µM (active) | GI50 (UACC-257): 0.00219 µM (active) | GI50 (PC-3): 0.00569 µM (active) | GI50 (HCT-116): 0.000412 µM (active) | GI50 (SR): 0.00131 µM (active) | GI50 (HOP-62): 0.00524 µM (active) | GI50 (SK-MEL-2): 0.00125 µM (active) | GI50 (A498): 0.00261 µM (active) | GI50 (MDA-MB-435): 0.000298 µM (active) | GI50 (786-0): 0.00451 µM (active) | GI50 (MCF7): 0.000476 µM (active) | GI50 (IGROV-1): 0.00618 µM (active)

CC1=C(C(=O)N[C@@H](CC(C)C)C(=O)O)N2C(=O)[C@@H](NC(=O)[C@@H](N)Cc3ccccc3)[C@H]2SC1
GI50 (EKVX): > 100 µM (inactive) | GI50 (BT-549): > 100 µM (inactive) | GI50 (NCI-H460): > 100 µM (inactive) | GI50 (UACC-62): > 100 µM (inactive) | GI50 (SF-295): > 100 µM (inactive) | GI50 (Hs-578T): > 100 µM (inactive) | GI50 (NCI/ADR-RES): > 100 µM (inactive) | GI50 (COLO 205): > 100 µM (inactive) | GI50 (K562): > 100 µM (inactive) | GI50 (U-251): > 100 µM (inactive) | GI50 (OVCAR-5): > 100 µM (inactive) | GI50 (SN12C): > 100 µM (inactive) | GI50 (ACHN): > 100 µM (inactive) | GI50 (CAKI-1): > 100 µM (inactive) | GI50 (DU-145): > 100 µM (inactive) | GI50 (OVCAR-4): > 100 µM (inactive) | GI50 (KM12): > 100 µM (inactive) | GI50 (SF-268): > 100 µM (inactive) | GI50 (MDA-MB-231): > 100 µM (inactive) | GI50 (LOX IMVI): > 100 µM (inactive) | GI50 (SW-620): > 100 µM (inactive) | GI50 (HCC 2998): > 100 µM (inactive) | GI50 (SK-MEL-5): > 100 µM (inactive) | GI50 (HCT-15): > 100 µM | GI50 (NCI-H522): > 100 µM (inactive) | GI50 (HOP-92): > 100 µM (inactive) | GI50 (OVCAR-8): > 100 µM (inactive) | GI50 (M14): > 100 µM (inactive) | GI50 (Malme-3M): > 100 µM (inactive) | GI50 (TK-10): > 100 µM (inactive) | GI50 (A549): > 100 µM (inactive) | GI50 (OVCAR-3): > 100 µM (inactive) | GI50 (MDA-N): > 100 µM (inactive) | GI50 (SK-MEL-28): > 100 µM (inactive) | GI50 (T47D): > 100 µM (inactive) | GI50 (RPMI-8226): > 100 µM (inactive) | GI50 (MOLT-4): > 100 µM (inactive) | GI50 (RXF 393): > 100 µM (inactive) | GI50 (CCRF-CEM): > 100 µM (inactive) | GI50 (SNB-19): > 100 µM (inactive) | GI50 (HL-60): > 100 µM (inactive) | GI50 (SNB-75): > 100 µM (inactive) | GI50 (NCI-H226): > 100 µM (inactive) | GI50 (SF-539): > 100 µM (inactive) | GI50 (UACC-257): > 100 µM (inactive) | GI50 (PC-3): > 100 µM (inactive) | GI50 (SR): > 100 µM (inactive) | GI50 (SK-MEL-2): > 100 µM (inactive) | GI50 (A498): > 100 µM (inactive) | GI50 (MDA-MB-435): > 100 µM (inactive) | GI50 (786-0): > 100 µM (inactive) | GI50 (MCF7): > 100 µM (inactive) | GI50 (IGROV-1): > 100 µM (inactive)
